Consider four molecules from US12226431B2 (priority 2021, dated 2025).

For data set [1] the following is noted: preservative in nasal sprays and nebulization; cited from earlier work.
The test system of data set [2] is cell plasma membrane. Put plainly: Cells exposed to increasing concentration of M-βCD to deplete plasma membrane cholesterol: phospholipid uptake and membrane fusion proteins. Format: cell-based.
Data set [3] has as its system pseudorabies virus. The following applies: cited from earlier work.
The subject of data set [4] is vaccinia virus. The following applies: depletion of plasma membrane cholesterol in host cells; cited from earlier work.
For data set [5], the system named is influenza virus. The conditions noted are these: cited from earlier work.
Data set [6] relates to SARS-COV-2. The conditions noted are these: two weeks of receiving the quercetin treatment; cited from earlier work.
Setting [7] is: increasing concentration of M-βCD, cholesterol depletion.

With Benzalkonium chloride, in data set [1], the “adverse / toxic effects” value is “sino-nasal mucosal injury, nasal squamous metaplasia, ciliary dysmotility, genotoxicity, and other adverse effects”.

Turning to methyl beta cyclodextrin [M-βCD], in data set [2] (setting [7]), the “uptake of phosphatidyl serine by the cell plasma membrane” value is “loss in the uptake” and the “uptake of phosphatidylethanolamine by the cell plasma membrane” value is given as “remain unchanged”. Moreover, the “membrane fusion proteins syntaxin and SNAP25 at the plasma membrane” value in data set [2] (loss of cholesterol from the cell plasma membrane) is reported as “depletion of membrane fusion proteins”. Besides, the “entry of pseudorabies virus into cells” value in data set [3] is listed as “significantly reduces”. Also, the “entry of vaccinia virus into cells” value in data set [4] is recorded as “significantly reduces”.

In the case of `OCc1ccccc1` [phenylcarbinol], the “adverse / toxic effects” value in data set [1] is on record as “toxic effects”.

For the molecule `O=c1c(O)c(-c2ccc(O)c(O)c2)oc2cc(O)cc(O)c12` [quercetin], in data set [5], the “therapeutic effects against influenza virus” value is on record as “therapeutic effects”. For the same molecule, the “SARS-COV-2 infected patients cleared of the virus” value in data set [6] is 98%.
